Test results published in ChEMBL document CHEMBL6177994 (J Med Chem, 2025).
Activity calls are given as the source filed them. The calls are words filed in the database; no cut-off is given here.

Experiments:
Cytochrome P450 3A4 = Cytochrome P450 3A4 (Homo sapiens, UniProt P08684); assay: Inhibition of CYP3A4 in human liver microsomes using midazolam as substrate at 10 uM incubated for 15 mins in presence of NADPH by LC/MS analysis; assay type: ADME, Microsome; conditions: 0.25 h
PK-59 = assay: PROTAC activity at CRBN/KRAS G12D mutant in human PK-59 cells assessed as induction of KRAS G12D mutant degradation 0.01 to 100 nM measured after 24 hrs by immunoblot analysis; assay type: cell-based; conditions: dose 0.01-100 nM
[1] = Antitumor activity against human GP2d cells xenografted in female Balb/c nude mouse model assessed as tumor growth inhibition at 10 mg/kg, iv QW administered […] and measured after 28 days relative to control; assay type: functional; conditions: 672 h, time 28 day, read-out: TGI
[2] = Drug concentration in male Balb/c nude mouse tumor xenografted with human GP2d cells at 10 mg/kg, iv administered as single dose measured after 7 days by LC-MS/MS analysis; assay type: ADME, organism-based, Neoplasm; conditions: time 7 day, read-out: Ct
AGS = assay: PROTAC activity at CRBN/KRAS G12D mutant in human AGS cells assessed as induction of KRAS G12D mutant degradation 0.01 to 100 nM measured after 24 hrs by immunoblot analysis; assay type: cell-based; conditions: dose 0.01-100 nM
[3] = Stability in human plasma assessed as half life at 1 uM measured up to 120 mins by LC-MS/MS analysis; assay type: ADME, cell-free
[4] = tested on: Protein cereblon/GTPase KRas (Homo sapiens), P01116+Q96SW2 [G12D]; assay: In vivo PROTAC activity at CRBN/KRAS G12D mutant in male Balb/c nude mouse xenografted with human GP2d cells assessed as inhibition of DUSP4 level at 10 mg/kg, iv measured after 7 days; assay type: functional, organism-based; conditions: time 7.0 day
[5] = Half life in male Sprague-Dawley rat at 1 mg/kg, iv measured up to 24 hrs by LC-MS/MS analysis; assay type: ADME, organism-based; conditions: in vivo
Cytochrome P450 2C19 = Cytochrome P450 2C19 (Homo sapiens, UniProt P33261); assay: Inhibition of CYP2C19 in human liver microsomes using S-mephenytoin as substrate at 10 uM incubated for 15 mins in presence of NADPH by LC/MS analysis; assay type: ADME, Microsome; conditions: 0.25 h
[6] = Toxicity in female Balb/c nude mouse xenografted with human GP2d cells assessed as drug tolerance at 1 to 10 mg/kg, iv QW measured after 28 days; assay type: organism-based; conditions: in vivo, 672 h, dose 1-10 mg/kg, time 28 day
[7] = Inhibition of ERK phosphorylation in human AGS cells harbouring KRAS G12D mutant measured after 24 hrs; assay type: cell-based
[8] = Metabolic stability in mouse liver microsomes assessed as half life at 1 uM preincubated for 3 mins with NADPH and measured up to 60 mins by LC-MS/MS analysis; assay type: ADME, Microsome; conditions: time < 63 min
[9] = tested on: Protein cereblon/GTPase KRas (Homo sapiens), P01116+Q96SW2 [G12D]; assay: In vivo PROTAC activity at CRBN/KRAS G12D mutant in male Balb/c nude mouse xenografted with human GP2d cells assessed as inhibition of ERK phosphorylation level at 10 mg/kg, iv measured after 7 days; assay type: functional, organism-based; conditions: time 7.0 day
CCRF-CEM = assay: Antiproliferative activity against human CCRF-CEM cells harbouring KRAS G12D mutant assessed as inhibition of cell growth measured after 72 hrs by Cell titer glo method; assay type: functional, cell-based
A-427 [10] = assay: Antitumor activity against human A-427 cells harbouring KRAS G12D mutant xenografted in female Balb/c nude mouse model assessed as tumor regression at 1 to 10 mg/kg, iv QW administered weekly and measured after 28 days relative to control; assay type: functional; conditions: dose 1-10 mg/kg, time 28 day
A-427 [11] = assay: Antiproliferative activity against human A-427 cells harbouring KRAS G12D mutant assessed as inhibition of cell growth measured after 72 hrs by Cell titer glo method; assay type: functional, cell-based
[12] = Half life in male cynomolgus monkey at 1 mg/kg, iv measured up to 24 hrs by LC-MS/MS analysis; assay type: ADME, organism-based, Macaca fascicularis; conditions: in vivo
[13] = Drug concentration in male Balb/c nude mouse tumor xenografted with human PK-59 cells at 10 mg/kg, iv administered as single dose measured after 6 hrs by LC-MS/MS analysis; assay type: ADME, organism-based, Neoplasm; conditions: read-out: Ct
[14] = Metabolic stability in dog liver microsomes assessed as half life at 1 uM preincubated for 3 mins with NADPH and measured up to 60 mins by LC-MS/MS analysis; assay type: ADME, Canis lupus familiaris, Microsome; conditions: time < 63 min
[15] = Volume of distribution at steady state in male Sprague-Dawley rat at 1 mg/kg, iv measured up to 24 hrs by LC-MS/MS analysis; assay type: ADME, organism-based; conditions: in vivo, read-out: Vdss
[16] = Drug concentration in male Balb/c nude mouse plasma xenografted with human PK-59 cells at 10 mg/kg, iv administered as single dose measured after 168 hrs by LC-MS/MS analysis; assay type: ADME, organism-based
SNU-407 = assay: Antitumor activity against human SNU-407 cells harbouring KRAS G12D mutant xenografted in female Balb/c nude mouse model assessed as tumor regression at 1 to 10 mg/kg, iv QW administered weekly and measured after 28 days; assay type: functional, organism-based; conditions: dose 1-10 mg/kg, time 28.0 day
[17] = Stability in rat plasma assessed as half life at 1 uM measured up to 120 mins by LC-MS/MS analysis; assay type: ADME, cell-free
[18] = tested on: Protein cereblon/GTPase KRas (Homo sapiens), P01116+Q96SW2 [G12D]; assay: In vivo PROTAC activity at CRBN/KRAS G12D mutant in male Balb/c nude mouse xenografted with human GP2d cells assessed as degradation of KRAS G12D mutant at 10 mg/kg, iv measured after 7 days relative to control; assay type: functional, organism-based; conditions: time 7.0 day
[19] = Inhibition of Raf (unknown origin)/GTP loaded KRas G12D mutant interaction preincubated for 15 mins followed by anti-tag1-eu3 and Tag2-XL665 antibody addition and measured for 120 mins by HTRF method; parameters: species or system Homo sapiens
[20] = AUC (0 to t) in male Sprague-Dawley rat at 1 mg/kg, iv measured up to 24 hrs by LC-MS/MS analysis; assay type: ADME, organism-based; conditions: in vivo
Panc 04.03 = assay: Antiproliferative activity against human Panc 04.03 cells harbouring KRAS G12D mutant assessed as inhibition of cell growth measured after 72 hrs by Cell titer glo method; assay type: functional, cell-based
[21] = Antitumor activity against human GP2d cells xenografted in female Balb/c nude mouse model assessed as tumor growth inhibition at 1 mg/kg, iv QW measured after 28 days relative to control; assay type: functional; conditions: 672 h, time 28 day, read-out: TGI
[22] = Half life in male Beagle dog at 1 mg/kg, iv measured up to 24 hrs by LC-MS/MS analysis; assay type: ADME, organism-based, Canis lupus familiaris; conditions: in vivo
HEK293 = assay: Antiproliferative activity against HEK293 cells harbouring wild type KRAS assessed as inhibition of cell growth measured after 72 hrs by Cell titer glo method; assay type: toxicity, cell-based; conditions: human, hek293, 72 h
[23] = Metabolic stability in human liver microsomes assessed as intrinsic clearance at 1 uM preincubated for 3 mins with NADPH and measured up to 60 mins by LC-MS/MS analysis; assay type: ADME, Microsome; conditions: time < 63 min, read-out: CLH
[24] = Elimination half life in male ICR mouse colon at 10 mg/kg, iv measured up to 336 hrs by LC-MS/MS analysis; assay type: ADME, organism-based; conditions: read-out: beta t1/2 (converted)
ASPC1 = assay: Antiproliferative activity against human ASPC1 cells harbouring KRAS G12D mutant assessed as inhibition of cell growth measured after 72 hrs by Cell titer glo method; assay type: functional, cell-based; conditions: ASPC1, 72 h

Chain of Protein cereblon/GTPase KRas (Homo sapiens), P01116+Q96SW2 [G12D] (P01116 whole entry G12D): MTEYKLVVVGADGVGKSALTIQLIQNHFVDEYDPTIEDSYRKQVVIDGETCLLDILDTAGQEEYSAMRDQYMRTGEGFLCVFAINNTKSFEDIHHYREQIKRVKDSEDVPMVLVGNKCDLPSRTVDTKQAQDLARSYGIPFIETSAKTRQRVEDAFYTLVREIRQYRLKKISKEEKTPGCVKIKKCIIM
Chain of Protein cereblon/GTPase KRas (Homo sapiens), P01116+Q96SW2 [G12D] (Q96SW2 whole entry partner): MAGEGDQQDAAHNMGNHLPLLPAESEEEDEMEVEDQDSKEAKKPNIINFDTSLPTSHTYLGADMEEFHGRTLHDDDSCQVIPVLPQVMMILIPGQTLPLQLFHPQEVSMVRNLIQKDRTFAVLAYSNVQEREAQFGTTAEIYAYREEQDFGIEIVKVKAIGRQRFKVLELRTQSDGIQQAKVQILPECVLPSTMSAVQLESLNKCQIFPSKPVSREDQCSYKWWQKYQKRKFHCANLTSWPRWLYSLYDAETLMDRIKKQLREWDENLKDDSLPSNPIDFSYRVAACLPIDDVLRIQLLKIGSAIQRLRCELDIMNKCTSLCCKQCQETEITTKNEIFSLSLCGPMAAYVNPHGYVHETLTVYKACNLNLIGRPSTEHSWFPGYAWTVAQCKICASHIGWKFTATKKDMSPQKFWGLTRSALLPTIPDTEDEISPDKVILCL
Chain of Cytochrome P450 3A4 (P08684 whole entry): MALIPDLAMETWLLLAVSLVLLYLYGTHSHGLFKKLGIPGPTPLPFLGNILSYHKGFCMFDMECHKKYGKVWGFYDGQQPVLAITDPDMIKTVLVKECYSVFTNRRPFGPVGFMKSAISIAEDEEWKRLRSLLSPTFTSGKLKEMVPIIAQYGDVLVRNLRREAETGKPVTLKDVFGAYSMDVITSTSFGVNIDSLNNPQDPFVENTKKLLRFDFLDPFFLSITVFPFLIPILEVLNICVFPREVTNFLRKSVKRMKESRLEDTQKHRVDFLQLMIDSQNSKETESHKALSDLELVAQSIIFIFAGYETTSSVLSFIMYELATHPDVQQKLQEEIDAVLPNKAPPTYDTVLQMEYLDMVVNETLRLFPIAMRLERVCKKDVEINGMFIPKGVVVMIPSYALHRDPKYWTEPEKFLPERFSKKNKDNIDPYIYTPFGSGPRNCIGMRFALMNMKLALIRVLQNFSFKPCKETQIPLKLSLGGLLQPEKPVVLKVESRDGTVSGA
Chain of Cytochrome P450 2C19 (P33261 whole entry): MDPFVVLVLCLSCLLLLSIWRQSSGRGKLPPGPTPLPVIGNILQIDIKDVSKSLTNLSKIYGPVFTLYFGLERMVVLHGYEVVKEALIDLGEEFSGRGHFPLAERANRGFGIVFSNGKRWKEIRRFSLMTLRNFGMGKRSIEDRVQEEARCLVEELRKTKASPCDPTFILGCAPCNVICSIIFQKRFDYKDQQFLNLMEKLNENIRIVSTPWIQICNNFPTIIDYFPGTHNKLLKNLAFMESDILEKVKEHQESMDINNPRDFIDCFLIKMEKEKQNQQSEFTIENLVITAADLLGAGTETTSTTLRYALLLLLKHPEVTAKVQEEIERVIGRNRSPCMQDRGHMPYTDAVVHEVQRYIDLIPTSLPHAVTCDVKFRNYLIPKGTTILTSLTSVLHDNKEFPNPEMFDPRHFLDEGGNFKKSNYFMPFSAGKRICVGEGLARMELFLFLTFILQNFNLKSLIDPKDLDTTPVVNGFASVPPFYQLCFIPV

In the case of `C#Cc1c(F)ccc2cc(O)cc(-c3ncc4c(N5CC6CCC(C5)N6)nc(OCC5(CN6CCC7(CC6)CC(N6CCC(c8cc9c(cc8F)c(N8CCC(=O)NC8=O)nn9C)CC6)C7)CC5)nc4c3F)c12`, the “inhibition (INH)” value (Cytochrome P450 3A4) is reported as “Not_active”, the Activity (PK-59) is reported as “Active” and the inhibition in vivo at 10 mg/kg [1] is reported as 94.7%. The concentration at 168 h [2] was 840 ng/g, the Activity (AGS) was “Active” and the half-life at 1 µM [3] was 165 h. The Activity [4] was “Active”, the half-life [5] was 9.63 h and the “inhibition (INH)” value (Cytochrome P450 2C19) was “Not_active”. The Activity [6] was “Non-toxic”, the IC50 [7] was 10.6 nM and the half-life at 1 µM [8] was 7.22 h. For the same compound, the Activity [9] was “Active”, the Activity (CCRF-CEM) was “Active; Compound Showed Stronger Antiproliferative Activity Compared To Mrtx1133” and the Activity (A-427 [10]) was over 30%. The Activity (A-427 [11]) was “Active; Compound Showed Stronger Antiproliferative Activity Compared To Mrtx1133”, the half-life [12] was 12.4 h and the concentration at 6 h [13] was 1040 ng/g. It also gave a half-life at 1 µM [14] of 7.22 h, a Vd [15] of 10.3 L/kg and a concentration at 168 h [16] of 5.3 ng/mL. The Activity (SNU-407) was “Weak_effect”, the half-life at 1 µM [17] was 12.8 h and the Activity [18] was 95%. The IC50 [19] was 3.23 nM, the AUC(0-t) at 24 h [20] was 0.531 µM·h and the Activity (Panc 04.03) was “Active; Compound Showed Stronger Antiproliferative Activity Compared To Mrtx1133”. For the same compound, the inhibition in vivo at 1 mg/kg [21] was 74.8%, the half-life [22] was 15.6 h and the Activity (HEK293) was “Non-toxic”. For the same compound, the CLint scaled at 1 µM [23] was 8.1 mL/min/kg, the half-life [24] was 94.6 h and the IC50 (ASPC1) was 4.19 nM.
